Source: ChEMBL document CHEMBL1142152, “Inhibition of anthrax protective antigen outside and inside the cell” (Antimicrob Agents Chemother, 2007)
The source made the active and inactive calls. The rule behind the calls is not given here.

Legend:
Type in all cases: functional, cell-based
[1] = test system: CHO; experiment: Inhibition of LFn-Lip uptake in CHO cells expressing TEM8 receptor at 100 uM after 1 hrs; conditions: Cricetulus griseus
[2] = test system: CHO; experiment: Blockade of PA-induced toxicity in CHO cells expressing TEM8 assessed as cell viability at 5 uM after 48 hrs; conditions: Cricetulus griseus
[3] = test system: CHO; experiment: Inhibition of PA-induced apoptosis in CHO cells expressing TEM8 receptor cells at 5 uM after 24 hrs; conditions: Cricetulus griseus
[4] = test system: CHO; experiment: Inhibition of LFn-A1 uptake in CHO cells expressing TEM8 receptor at 100 uM; conditions: Cricetulus griseus
[5] = organism: Mus musculus; experiment: Cell viability in mouse RAW264.7 cells by LeTx protection assay
[6] = test system: KDR; experiment: Protection of SLT-VEGF induced toxicity in 293/KDR cells; conditions: Homo sapiens

In the case of `NCCCSC[C@H]1O[C@@H]2O[C@H]3[C@H](O)[C@@H](O[C@H]4[C@H](O)[C@@H](O)[C@@H](O[C@H]5[C@H](O)[C@@H](O)[C@@H](O[C@H]6[C@H](O)[C@@H](O)[C@@H](O[C@H]7[C@H](O)[C@@H](O)[C@@H](O[C@H]8[C@H](O)[C@@H](O)[C@@H](OC1[C@H](O)[C@H]2O)O[C@@H]8CSCCCN)O[C@@H]7CSCCCN)O[C@@H]6CSCCCN)O[C@@H]5CSCCCN)O[C@@H]4CSCCCN)[C@@H](O)O[C@@H]3CSCCCN`, the Activity [1] is reported as “inactive”, the Activity [2] is reported as “Active” and the Activity [3] is reported as “Active”. For the same compound, the Activity [4] was “Active”, the IC50 [5] was 7 µM and the Activity [6] was “inactive”.
